# Source: patent US20120121691A1, “Method for Increasing the Production of a Specific ACYL-Chain Dihydroceramide(s) for Improving the Effectiveness of Cancer Treatments” (priority 2010, published 2012)
# Read-outs that look alike come from different tables or passages of the source.
# Assays:
# COG-LL-317 = type: cell-based, human
# Protocol: (§1) Statistical analyses. […] Propagated standard deviations were calculated using standard methods. Correlation analyses were performed using Sigmaplot 11 software.
# MOLT-4 = type: cell-based, human
# Protocol: as §1
# COG-LL-332 = type: cell-based, human
# Protocol: as §1
# CCRF-CEM = test system: CCRF-CEM
# Protocol: Statistical analyses. Descriptive statistics and significance testing were performed using Microsoft Excel. The Excel function “t.test” was used for Student's T-testing (two-tailed, type-2). Propagated standard deviations were calculated using standard methods. Correlation analyses were performed using Sigmaplot 11 software. […]
# Due to the confounding effect of in vitro fatty acid conversion, correlation analyses were used to identify significant relationships between absolute levels of specific sphingolipids and cytotoxicity. […]
Compound,"Pearson Coef. (r), sphingolipid level vs cytotoxicity (COG-LL-317)","Spearman Coef. (ρ), sphingolipid level vs cytotoxicity (COG-LL-317)","Pearson Coef. (r), sphingolipid level vs cytotoxicity (MOLT-4)","Spearman Coef. (ρ), sphingolipid level vs cytotoxicity (MOLT-4)","Pearson Coefficient (r), sphingolipid level vs cytotoxicity (COG-LL-332)","Spearman Coefficient (ρ), sphingolipid level vs cytotoxicity (COG-LL-332)","Pearson Coef. (r), sphingolipid level vs cytotoxicity (CCRF-CEM)","Spearman Coef. (ρ), sphingolipid level vs cytotoxicity (CCRF-CEM)","Pearson Coef. (r), sphingolipid level vs cytotoxicity (CCRF-CEM; CCRF-CEM)","Spearman Coef. (ρ), sphingolipid level vs cytotoxicity (CCRF-CEM; CCRF-CEM)"
CCCCCCCCCCCCC/C=C/[C@@H](O)[C@H](CO)NC(=O)CCCCCCCCCCCCC [C14:0-Cer],−0.54,−0.43,−0.53,−0.48,−0.32,−0.28,0.03,0.01,,
CCCCCCCCCCCCCCC[C@@H](O)[C@H](CO)NC(=O)CCCCCCCCCCCCC [C14:0-DHCer],0.16,0.10,0.13,0.35,0.06,0.18,0.12,0.20,,
CCCCCCCCCCCCCC=CC(O)C(CO)NC(=O)CCCCCCCCCCCCCCC (centres unmarked) [C16:0-Cer],−0.48,−0.50,−0.62,−0.76,−0.09,−0.05,0.25,0.03,,
CCCCCCCCCCCCCCCC(=O)N[C@@H](CO)[C@H](O)CCCCCCCCCCCCCCC [C16:0-DHCer],0.03,0,0.26,0.57,0.45,0.62,0.26,0.37,,
CCCCCCCCCCCCCC=CC(O)C(CO)NC(=O)CCCCCCCCCCCCCCCCC (centres unmarked) [C18:0-Cer],−0.45,−0.60,−0.33,−0.45,−0.54,−0.38,0.14,0.07,,
CCCCCCCCCCCCCCCCCC(=O)N[C@@H](CO)[C@H](O)CCCCCCCCCCCCCCC [C18:0-DHCer],−0.22,−0.38,0.12,0.14,−0.16,−0.16,0.22,0.15,,
CCCCCCCCC=CCCCCCCCC(=O)NC(CO)C(O)C=CCCCCCCCCCCCCC (centres unmarked) [C18:1-Cer],−0.50,−0.59,−0.52,−0.59,−0.45,−0.30,0.11,0.10,,
CCCCCCCCCCCCCC=CC(O)C(CO)NC(=O)CCCCCCCCCCCCCCCCCCC (centres unmarked) [C20:0-Cer],−0.63,−0.81,−0.46,−0.52,−0.79,−0.91,0.01,0.07,,
CCCCCCCCCCCCCCCCCCCC(=O)N[C@@H](CO)[C@H](O)CCCCCCCCCCCCCCC [C20:0-DHCer],−0.04,0.14,0.12,0.14,−0.09,0,0.20,0.32,,
CCCCCCCCCCCCCC=CC(O)C(CO)NC(=O)CCCCCCCCCCCCCCCCCCCCC (centres unmarked) [C22:0-Cer],0.59,0.33,0.46,0.31,0.45,0,0.42,0.48,,
CCCCCCCCCCCCCCCCCCCCCC(=O)N[C@@H](CO)[C@H](O)CCCCCCCCCCCCCCC [C22:0-DHCer],0.86,0.79,0.79,0.91,0.73,0.81,0.67,0.75,,
CCCCCCCCC=CCCCCCCCCCCCC(=O)NC(CO)C(O)C=CCCCCCCCCCCCCC (centres unmarked) [C22:1-Cer],−0.28,−0.60,−0.32,−0.48,−0.14,−0.26,−0.23,−0.24,,
CCCCCCCCC=CCCCCCCCCCCCC(=O)NC(CO)C(O)CCCCCCCCCCCCCCC (centres unmarked) [C22:1-DHCer],−0.28,−0.26,−2.5 × 10^−3,0.24,0.07,0.62,−0.13,0.22,,
CCCCCCCCCCCCCCC[C@@H](O)[C@@H](N)COP(=O)(O)O [Sphingaine-1-P],,,,,,,0.44,0.38,,
CCCCCCCCCCCCC/C=C/[C@@H](O)[C@@H](N)COP(=O)(O)O [Sphingosine-1-P],,,,,,,,,−0.07,0.27
CCCCCCCCCCCCC/C=C/[C@@H](O)[C@@H](N)CO [Sphingosine],,,,,,,0.02,−0.19,,
